Experimental data published in patent US8623911B2, “Boron-containing small molecules as anti-protozoal agent” (Anacor Pharmaceuticals, Inc., priority 2010, dated 2014).

How the values were obtained:
[1] = system: TREU 667 strain of T. b. brucei; test: Chronic CNS Model [Murine Stage 2 HAT]; type: in vivo; details: 50 mg/kg PO BID for 7 days, starting at Day 21 post-infection
Protocol: Mice were infected with 10,000 parasites of the TREU 667 strain of T. b. brucei. Twenty one days post-infection mice were treated with a dose of between 6 and 100 mg/kg of a compound of the invention, either BID or QD for 7 days intraperitoneally (IP) or orally (PO). Positive control mice were treated with Diminazene (10 mg/kg, IP) on Day 4 post-infection. Negative control mice were treated with Diminazene (10 mg/kg, PO) on Day 21. Since Diminazene is not able to penetrate the CNS, mice treated at Day 21 are not able to cure the infection. Starting 1 week after treatment, mice were checked for parasitemia by microscopic examination of smears prepared from tail vein blood. Parasite positive animals were immediately removed from the cages and euthanized. Animals were considered to be cured of a CNS infection if they were aparasitemic for at least 180 days after the end of the treatment period.

[2] = system: MDCK-MDR1 cells; test: in vitro; type: in vitro ADME, canine; details: 3 μM test compound
Protocol: (§1) MDCK-MDR1 cells (Madin-Darby canine kidney cells transfected with the human MDR1 gene) (Dr. Piet Borst, NKI-AVL, Amsterdam, The Netherlands) were seeded at 300,000 cells per well onto microporous, polycarbonate membranes in 12 well Costar Transwell® plates (Corning, Corning, N.Y.). The medium was removed and replaced with fresh cell culture medium approximately 24 hours after plating. Cells attained confluency and were ready for use in the transport assay after 72 hours of incubation.
(§2) A stock solution of each compound was prepared in DMSO at a concentration of 10 mg/mL. Stock solutions were further diluted in DMSO to a concentration of 1 mM for use in the assay. The final assay concentration of test compound in each incubation mixture was 3 μM and the final concentration of DMSO was 0.3%.
(§3) Cell cultures were pre-incubated with Transport Medium (TM), consisting of Hanks Balanced Salt Solution (HBSS), 25 mM glucose, and 25 mM HEPES, with and without the known P-gp inhibitor GF120918 (2 μM final assay concentration), for 30-60 minutes prior to the addition of test and control compounds. Following the pre-incubation period, transepithelial electrical resistance (TEER) measurements were taken on each insert to insure the integrity of the monolayer. The range for TEER values was 45-85Ω·cm^2. Transport medium was removed. Fresh transport media (1.5 mL) with or without GF120918 was added to the basolateral chambers. Solutions of the test compound were diluted into TM and added to the appropriate wells in triplicate (400 μL/well) at a final concentration of 3 μM with and without GF120918. The final concentration of DMSO was 0.3%. Control compounds were tested in triplicate at a final concentration of 3 μM. Cell monolayers were incubated with shaking (160 rpm) at 37° C. with 5% CO2 in a humidified incubator for one hour. Following the incubation, all plates were removed from the incubator. Inserts were removed from the plates and TEER measurements were again taken on each insert prior to removing samples for analysis to ensure no degradation of the tight junctions during the assay. An aliquot was taken from each receiver and diluted 1:3 with organic solvent (methanol) to assess transport of each compound across the monolayer. An aliquot was taken from each donor and diluted 1:2 with organic solvent (methanol) and then again 1:50 with matrix (50% methanol/50% TM) to assess mass balance within the study. All samples were assayed for test compound concentrations by LC-MS/MS using electrospray ionization.

[3] = system: P-gp (human MDR1); test: in vitro; type: in vitro ADME, canine; details: dog, MDCK-MDR1; 3 μM test compound; without GF120918; read-out: MDCK-MCR1 Papp
Protocol: as §1, §2, §3

[4] = system: LAB 110 Eatro strain of T. b. brucei; test: Acute Murine Model A [Murine Stage 1 HAT]; type: in vivo
Protocol: Female Swiss Webster mice were inoculated with 250,000 parasites of the LAB 110 Eatro strain of T. b. brucei. 24 hrs post-infection, treatment was initiated by administration of a compound of the invention BID for 4 days with 20 mg/kg/dose (40 mg/kg/day) intraperitoneally (IP) or orally (PO), 5 mg/kg BID or 10 mg/kg BID orally (PO). 3 mice per group were treated with a particular compound of the invention. Mice were checked for parasitemia weekly by microscopic examination of smears prepared from tail vein blood. Animals remaining parasite free for more than 30 days beyond the end of the treatment period were considered cured. Control untreated animals typically succumbed to the infection within 4-5 days following i.p. inoculation with parasites. Mice were monitored for 30 days for survival. Pentamidine at 2 mg/kg IP was used as the positive control. After 10 days, 0% of the untreated mice were parasite free. After 10 days, 67% of mice treated PO with 10 mg/kg BID of N-(1-Hydroxy-3,4-dihydro-1H-benzo[c][1,2]oxaborinin-7-yl)-4-methoxy-benzamide (M19) were parasite free. After 30 days, 100% of mice treated PO with 10 mg/kg BID of 4-fluoro-N-(1-hydroxy-3,4-dihydro-1H-benzo[c][1,2]oxaborinin-7-yl)-2-trifluoromethyl-benzamide (M1) were parasite free.

## O=C(Nc1ccc2c(c1)B(O)OCC2)c1ccc(F)cc1C(F)(F)F [M1, 4-Fluoro-N-(1-hydroxy-3,4-dihydro-1H-benzo[c][1,2]oxaborinin-7-yl)-2-trifluoromethyl-benzamide]
[1]
  mice with absence of blood parasites through Day 180: 100%
[2]
  MDCK-MCR1 AQ: −0.02
[3]
  Papp at 1 h, 3 µM: 55.7 ×10⁻⁶ cm/s
[4]; female Swiss Webster mice, PO 10 mg/kg BID for 4 days, after 30 days
  mice parasite free after 30 days: 100%
[4]; mice infected with T. b. brucei, 10 mg/kg, BID, orally, 4 days
  Mean Survival Days: 30 days
